{"source": "paper PMC10762035", "about": "“Molecular basis of human trace amine-associated receptor 1 activation” (Nature Communications, 2024)", "key": {"hTA1 V184P": {"biological_target": "T1, hTA1 V184P (Homo sapiens, UniProt Q96RJ0, V184P)", "T1 construct": "expressed in transfected cells; host or cells: HEK293T", "T1 sequence (Q96RJ0 1-339 V184P)": "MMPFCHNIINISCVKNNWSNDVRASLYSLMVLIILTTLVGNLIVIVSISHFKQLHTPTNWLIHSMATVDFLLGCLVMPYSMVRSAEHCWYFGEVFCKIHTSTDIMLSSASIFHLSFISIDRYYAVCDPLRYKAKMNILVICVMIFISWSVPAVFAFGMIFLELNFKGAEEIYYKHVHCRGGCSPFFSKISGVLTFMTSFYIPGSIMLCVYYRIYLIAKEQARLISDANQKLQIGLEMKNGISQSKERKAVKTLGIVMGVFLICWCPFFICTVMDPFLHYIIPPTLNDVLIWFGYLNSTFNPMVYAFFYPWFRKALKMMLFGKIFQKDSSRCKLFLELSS", "experiment": "GloSensor cAMP accumulation assay, V184P mutant", "assay_type": "cell-based", "conditions": "for cAMP accumulation response, single replicate values (source data, Supplementary Figure 5): hTA1 V184P (N=2), log[Compound]"}, "hTA1 C88/178S": {"biological_target": "T2, hTA1 C88/178S (Homo sapiens, UniProt Q96RJ0, C178S/C88S)", "T2 construct": "expressed in transfected cells; host or cells: HEK293T", "T2 sequence (Q96RJ0 1-339 C88S/C178S)": "T1 sequence (Q96RJ0 1-339 V184P) with C88S, C178S, P184V", "experiment": "GloSensor cAMP accumulation assay, C88S/C178S double mutant", "assay_type": "cell-based", "conditions": "for Normalized Luminescence Counts (N=2): log[Compound], single replicate values"}, "[1]": {"conditions": "hTA1 V184P mutant minus WT average"}, "[2]": {"conditions": "C88S, C178S, each row is one independent experiment, 3 replicates"}}, "note": "Residue numbers refer to the chain shown, from its start. Values joined by “and” are separate entries in the source; they are usually repeats but may differ in a detail not shown here. Identical values can stand only once.", "data": [{"smiles": "NCCc1ccccc1", "note": "[β-PEA, β-phenethylamine]", "values": [{"measurement": "reduction in potency vs wild type", "setting": "hTA1 V184P; V184P", "result": 3, "unit": "fold"}, {"measurement": "Span ± SEM (Emax normalized to β-PEA)", "setting": "hTA1 V184P; V184P, n=2", "result": "100 ± 1.96"}, {"measurement": "pEC50 ± SEM", "setting": "hTA1 V184P; V184P, n=2", "result": "6.49 ± 0.04"}, {"measurement": "EC50", "setting": "hTA1 V184P; V184P, n=2, read-out: EC50", "result": 321, "unit": "nM"}, {"measurement": "cAMP accumulation response, single replicate values (source data, Supplementary Figure 5)", "setting": "hTA1 V184P; M = -5", "result": "83.3536 and 92.5674 and 99.6475 and 104.399 and 96.8854 and 100.441"}, {"measurement": "cAMP accumulation response, single replicate values (source data, Supplementary Figure 5)", "setting": "hTA1 V184P; M = -5.522", "result": "95.962 and 88.397 and 84.7115 and 96.8487 and 73.2445 and 97.875"}, {"measurement": "cAMP accumulation response, single replicate values (source data, Supplementary Figure 5)", "setting": "hTA1 V184P; M = -6", "result": "78.5043 and 69.7754 and 70.1634 and 94.7595 and 71.9984 and 76.7632"}, {"measurement": "cAMP accumulation response, single replicate values (source data, Supplementary Figure 5)", "setting": "hTA1 V184P; M = -6.522", "result": "42.813 and 37.5757 and 33.5992 and 65.1077 and 56.2745 and 55.2115"}, {"measurement": "cAMP accumulation response, single replicate values (source data, Supplementary Figure 5)", "setting": "hTA1 V184P; M = -7", "result": "14.3957 and 16.7234 and 14.2987 and 30.7277 and 25.9995 and 32.4504"}, {"measurement": "cAMP accumulation response, single replicate values (source data, Supplementary Figure 5)", "setting": "hTA1 V184P; M = -7.522", "result": "8.4795 and 4.503 and 3.727 and 12.5114 and 6.1339 and 9.909"}, {"measurement": "cAMP accumulation response, single replicate values (source data, Supplementary Figure 5)", "setting": "hTA1 V184P; M = -8", "result": "2.078 and 0.1386 and 0.7205 and 5.731 and 6.5 and 4.265"}, {"measurement": "cAMP accumulation response, single replicate values (source data, Supplementary Figure 5)", "setting": "hTA1 V184P; M = -8.522", "result": "1.496 and -0.05538 and 0.3326 and 2.249 and 1.809 and 2.505"}, {"measurement": "cAMP accumulation response, single replicate values (source data, Supplementary Figure 5)", "setting": "hTA1 V184P; M = -9", "result": "1.011 and 0.1386 (2×) and 2.652 and -0.3902 and 1.626"}, {"measurement": "cAMP accumulation response, single replicate values (source data, Supplementary Figure 5)", "setting": "hTA1 V184P; M = -9.522", "result": "0.7205 and -0.2494 and 0.4296 and -0.02371 and -1.123 and -0.1703"}, {"measurement": "cAMP accumulation response, single replicate values (source data, Supplementary Figure 5)", "setting": "hTA1 V184P; M = -10", "result": "1.205 and -0.05538 and 0.3326 and -0.207 and -0.5002 and 0.4161"}, {"measurement": "cAMP accumulation response, single replicate values (source data, Supplementary Figure 5)", "setting": "hTA1 V184P; M = -10.522", "result": "0.8175 and 0.6235 and -0.1524 and -0.3169 and -1.27 and -0.6101"}, {"measurement": "cAMP accumulation response, single replicate values (source data, Supplementary Figure 5)", "setting": "hTA1 V184P; M = -11", "result": "0.04161 and -0.4433 and -0.1524 and 0.5261 and 0.1229 and -0.4269"}, {"measurement": "cAMP accumulation response, single replicate values (source data, Supplementary Figure 5)", "setting": "hTA1 V184P; M = -11.522", "result": "1.205 and 0.1386 and 0.2356 and 0.7826 and 0.5261 and 0.3062"}, {"measurement": "cAMP accumulation response, single replicate values (source data, Supplementary Figure 5)", "setting": "hTA1 V184P; M = -12", "result": "0.8175 (3×) and -0.3902 and -0.5735 and 0.0496"}, {"measurement": "cAMP accumulation response, single replicate values (source data, Supplementary Figure 5)", "setting": "hTA1 V184P; M = -12.522", "result": "2.175 and 1.496 and 1.205 and 0.08625 and 0.1962 and -0.7201"}, {"measurement": "ΔEmax values (each mutant value - WT average), Mean", "setting": "hTA1 V184P; [1]", "result": 0}, {"measurement": "ΔpEC50 values (each mutant value - WT average), Mean", "setting": "hTA1 V184P; [1]", "result": "-0.7478 and -0.4527"}, {"measurement": "pEC50 values, Mean", "setting": "hTA1 V184P; hTA1 V184P mutant, Figure 3B source data, each grid row a separate experiment, 3 replicates", "result": "6.346 and 6.641"}, {"measurement": "Emax values, Mean", "setting": "hTA1 V184P; hTA1 V184P mutant, β-PEA set to 100, each grid row a separate experiment, 3 replicates", "result": 100}, {"measurement": "Span ± SEM (Emax normalized to β-PEA)", "setting": "hTA1 C88/178S; C88/178S, n=2", "result": "100 ± 2.48"}, {"measurement": "pEC50 ± SEM", "setting": "hTA1 C88/178S; C88/178S, n=2", "result": "6.88 ± 0.05"}, {"measurement": "EC50", "setting": "hTA1 C88/178S; C88/178S, n=2, read-out: EC50", "result": 131, "unit": "nM"}, {"measurement": "pEC50 values, Mean", "setting": "hTA1 C88/178S; [2]", "result": "6.846 and 6.92"}, {"measurement": "ΔEmax values (each mutant value - WT average), Mean", "setting": "hTA1 C88/178S; [2]", "result": 0}, {"measurement": "ΔpEC50 values (each mutant value - WT average), Mean", "setting": "hTA1 C88/178S; [2]", "result": "-0.2478 and -0.1738"}, {"measurement": "Normalized Luminescence Counts (N=2)", "setting": "hTA1 C88/178S; C88S, C178S, M = -5", "result": "101.882 and 95.4366 and 102.899 and 85.0446 and 70.847 and 114.648"}, {"measurement": "Normalized Luminescence Counts (N=2)", "setting": "hTA1 C88/178S; C88S, C178S, M = -5.522", "result": "95.8888 and 94.7581 and 92.1574 and 110.721 and 84.1384 and 118.726"}, {"measurement": "Normalized Luminescence Counts (N=2)", "setting": "hTA1 C88/178S; C88S, C178S, M = -6", "result": "93.4012 and 85.4861 and 88.3694 and 88.8206 and 85.1957 and 105.284"}, {"measurement": "Normalized Luminescence Counts (N=2)", "setting": "hTA1 C88/178S; C88S, C178S, M = -6.522", "result": "70.73 and 60.7795 and 60.3272 and 66.7689 and 68.1283 and 68.2793"}, {"measurement": "Normalized Luminescence Counts (N=2)", "setting": "hTA1 C88/178S; C88S, C178S, M = -7", "result": "45.3449 and 38.504 and 42.0658 and 45.3213 and 30.2174 and 49.8525"}, {"measurement": "Normalized Luminescence Counts (N=2)", "setting": "hTA1 C88/178S; C88S, C178S, M = -7.522", "result": "20.2426 and 24.5959 and 17.7549 and 22.8165 and 30.2174 and 24.931"}, {"measurement": "Normalized Luminescence Counts (N=2)", "setting": "hTA1 C88/178S; C88S, C178S, M = -8", "result": "8.37 and 6.617 and 6.9 and 9.072 and 8.317 and 8.6188"}, {"measurement": "Normalized Luminescence Counts (N=2)", "setting": "hTA1 C88/178S; C88S, C178S, M = -8.522", "result": "1.02 and 2.433 and 0.1154 and 4.692 and 3.483 and 4.843"}, {"measurement": "Normalized Luminescence Counts (N=2)", "setting": "hTA1 C88/178S; C88S, C178S, M = -9", "result": "0.5677 and 0.7373 and -0.4499 and -0.2925 (2×) and 1.218"}, {"measurement": "Normalized Luminescence Counts (N=2)", "setting": "hTA1 C88/178S; C88S, C178S, M = -9.522", "result": "0.002362 and 0.3416 and -0.5065 and -0.8967 and 0.3116 and 0.009559"}, {"measurement": "Normalized Luminescence Counts (N=2)", "setting": "hTA1 C88/178S; C88S, C178S, M = -10", "result": "-0.9588 and 0.002362 and -0.3934 and -1.652 and -0.4436 and -1.199"}, {"measurement": "Normalized Luminescence Counts (N=2)", "setting": "hTA1 C88/178S; C88S, C178S, M = -10.522", "result": "-1.185 and -0.563 and -1.0153 and -1.803 and 0.009559 and -1.35"}, {"measurement": "Normalized Luminescence Counts (N=2)", "setting": "hTA1 C88/178S; C88S, C178S, M = -11", "result": "-0.05417 and -0.2238 and 0.4547 and -0.2925 and -1.652 and -0.7456"}, {"measurement": "Normalized Luminescence Counts (N=2)", "setting": "hTA1 C88/178S; C88S, C178S, M = -11.522", "result": "0.172 and 0.1154 and 0.7939 and 0.1606 and -1.954 and -0.4436"}, {"measurement": "Normalized Luminescence Counts (N=2)", "setting": "hTA1 C88/178S; C88S, C178S, M = -12", "result": "0.172 and -0.6195 and -0.5065 and -0.1415 and -1.35 and 0.9158"}, {"measurement": "Normalized Luminescence Counts (N=2)", "setting": "hTA1 C88/178S; C88S, C178S, M = -12.522", "result": "-0.2803 and 0.2285 and 0.002362 and -1.199 and 0.4627 and 0.6137"}]}]}
